Read-outs that look alike come from different tables or passages of the source.
What was measured:
LNCaP = experiment: Cell proliferation assay (CellTiterGlo, 72 h), LNCaP; type: cell-based; conditions: Homo sapiens, LNCap cells, 72 h compound treatment, read-out: LNCap ATP average IC50
Description: The cell line used was 22RV1 or LNCaP, and the medium was RPMI-1640 containing 10% FBS and antibiotics. All incubations were performed at 37° C. in a humidified carbon dioxide incubator.
On day 1, cells were digested with 0.25% trypsin (containing EDTA) and collected by centrifugation.
(§1) The cells were seeded in a 96-well plate (white wall/transparent bottom) at 5000 cells/well and cultured overnight.
(§2) On day 2, A stock solution of the compound at a concentration of 10 mM was subjected to an 8-fold serial dilution to obtain 8 concentration points. 2 μL of the compound solution at each concentration point was added to 98 μL of fresh medium, and the mixture was mixed homogeneously. Then, 5 μL of the compound solution diluted in the medium at each concentration point was added to 100 μL of overnight medium containing the cells, and 2 replicates were set for each concentration. The mixture was cultured for 72 h.
(§3) After 72 h of compound treatment, the plate was equilibrated to room temperature, 100 μL of CellTiterGlo (Promega) was added. The mixture was mixed homogeneously for 2 min, left to stand at room temperature for 10 min, and then read for luminescence values on a SpectraMax M5 microplate reader to evaluate cell viability. The positive control was 1% Tween-20 and the negative control was 0.1% DMSO. IC50 was generated by 4-parameter non-linear regression fitting in GraphPad Prism.

BRD4 = BRD4 (Homo sapiens, UniProt O60885); experiment: BRD4 degradation assay (Western-blot / Simple Western) in 22RV1; conditions: 22RV1 cells, target content as percentage of control (DMSO = 100%)
22RV1 = experiment: Cell proliferation assay (CellTiterGlo, 72 h), 22RV1; type: cell-based; conditions: Homo sapiens, read-out: 22Rv1 ATP average IC50
Description: All incubations were performed at 37° C. in a humidified carbon dioxide incubator.
as §1, §2, §3

[1] = 22Rv1 cells, 72 h compound treatment, CellTiterGlo

SMILES	IC50 (LNCaP)	BRD4 degradation of 22RV1 (200 nM 5 h) (BRD4)	IC50 (22RV1; [1])	IC50 (22RV1; 22Rv1, 72 h)
Cc1sc2c(c1C)C(c1ccc(/C=C/CNO)cc1)=N[C@@H](CC(=O)OC(C)(C)C)c1nnc(C)n1-2 [Compound 9011]	< 50 nM	A (A<20%)	< 50 nM	
CONC/C=C/c1ccc(C2=N[C@@H](CC(=O)OC(C)(C)C)c3nnc(C)n3-c3sc(C)c(C)c32)cc1 [Compound 9065]	< 50 nM	B (20%<B<50%)	< 50 nM	
Cc1sc2c(c1C)C(c1ccc(-c3ccc(CN)o3)cc1)=N[C@@H](CC(=O)OC(C)(C)C)c1nnc(C)n1-2 [Compound 9071]	50 to 200 nM	C (50%<C<80)	50 to 200 nM	
COc1ccc2c(c1)C(c1ccc(/C=C/CNO)cc1)=N[C@@H](CC(=O)OC(C)(C)C)c1nnc(C)n1-2 [Compound 9077]	< 50 nM	A (A<20%)		< 50 nM
CONCC#Cc1ccc(C2=N[C@@H](CC(=O)OC(C)(C)C)c3nnc(C)n3-c3ccc(OC)cc32)cc1 [Compound 9078]	< 50 nM	B (20%<B<50%)		< 50 nM
CONC/C=C/c1ccc(C2=N[C@@H](CC(=O)OC(C)(C)C)c3nnc(C)n3-c3ccc(OC)cc32)cc1 [Compound 9079]	< 50 nM	A (A<20%)		< 50 nM
COc1ccc2c(c1)C(c1ccc(C#CCN)cc1)=N[C@@H](CC(=O)OC(C)(C)C)c1nnc(C)n1-2 [Compound 9080]	50 to 200 nM	B (20%<B<50%)		< 50 nM
Cc1sc2c(c1C)C(c1ccc(-c3ccc(N)cc3)cc1)=NC(CC(=O)OC(C)(C)C)c1nnc(C)n1-2 (stereo not drawn) [Compound 9086]	200 to 500 nM		200 to 500 nM	
Cc1sc2c(c1C)C(c1ccc(-c3cccc(N)c3)cc1)=NC(CC(=O)OC(C)(C)C)c1nnc(C)n1-2 (stereo not drawn) [Compound 9087]	200 to 500 nM		> 500 nM	
Cc1sc2c(c1C)C(c1ccc(N3CC(=NO)C3)cc1)=N[C@@H](CC(=O)OC(C)(C)C)c1nnc(C)n1-2 [Compound 9090]	50 to 200 nM		> 500 nM	
Cc1sc2c(c1C)C(c1ccc(C#CCN)cc1)=N[C@@H](CCOC(=O)C(C)(C)C)c1nnc(C)n1-2 [Compound 9091]	200 to 500 nM			50 to 200 nM
CC(=O)NOC/C=C/c1ccc(C2=N[C@@H](CC(=O)OC(C)(C)C)c3nnc(C)n3-c3sc(C)c(C)c32)cc1 [Compound 9094]	50 to 200 nM		50 to 200 nM	
Cc1noc2c1-c1ccccc1C(c1ccc(/C=C/CNO)cc1)=N[C@H]2CC(=O)OC(C)(C)C [Compound 9095]	50 to 200 nM		50 to 200 nM	
CONC/C=C/c1ccc(C2=N[C@@H](CC(=O)OC(C)(C)C)c3onc(C)c3-c3ccccc32)cc1 [Compound 9097]	> 500 nM		> 500 nM	
Cc1noc2c1-c1ccccc1C(c1ccc(C#CCN)cc1)=N[C@H]2CC(=O)OC(C)(C)C [Compound 9098]	> 500 nM		> 500 nM	
Cc1sc2c(c1C)C(c1ccc(C#CCN)cc1)=N[C@@H](CC(=O)OC1(C)CC1)c1nnc(C)n1-2 [Compound 9103]	< 50 nM	B (20%<B<50%)		< 50 nM
CNC(=O)C#Cc1ccc(C2=N[C@@H](CC(=O)OC(C)(C)C)c3nnc(C)n3-c3sc(C)c(C)c32)cc1 [Compound 9104]		D (80%<D<100%)	< 50 nM	
CC(=O)N(O)C/C=C/c1ccc(C2=N[C@@H](CC(=O)OC(C)(C)C)c3nnc(C)n3-c3sc(C)c(C)c32)cc1 [Compound 9109]	50 to 200 nM	C (50%<C<80)	200 to 500 nM	
Cc1sc2c(c1C)C(c1ccc(/C=C/CNC(=N)N)cc1)=N[C@@H](CC(=O)OC(C)(C)C)c1nnc(C)n1-2 [Compound 9110]	> 500 nM		> 500 nM	
Cc1sc2c(c1C)C(c1ccc(C#CCNC(=N)NO)cc1)=N[C@@H](CC(=O)OC(C)(C)C)c1nnc(C)n1-2 [Compound 9111]	50 to 200 nM	D (80%<D<100%)	200 to 500 nM	

SMILES	IC50 (LNCaP)	BRD4 degradation of 22RV1 (200 nM 5 h) (BRD4)	IC50 (22RV1; [1])	IC50 (22RV1; 22Rv1, 72 h)
Cc1sc2c(c1C)C(c1ccc(C#CCN)cc1)=N[C@@H](CC(=O)OCC1(C)COC1)c1nnc(C)n1-2 [Compound 9112]	50 to 200 nM	D (80%<D<100%)		50 to 200 nM
Cc1sc2c(c1C)C(c1ccc(/C=C/CNC(=N)NO)cc1)=N[C@@H](CC(=O)OC(C)(C)C)c1nnc(C)n1-2 [Compound 9114]		C (50%<C<80)	50 to 200 nM	
COC(=O)C=Cc1ccc(C2=N[C@@H](CC(=O)OC(C)(C)C)c3nnc(C)n3-c3sc(C)c(C)c32)cc1 [Compound 9118]	< 50 nM		200 to 500 nM	
Cc1noc2c1-c1ccccc1C(c1ccc(/C=C/CN)cc1)=N[C@H]2CC(=O)OC(C)(C)C [Compound 9122]	50 to 200 nM		> 500 nM	
Cc1sc2c(c1C)C(c1ccc(C3CC3CNO)cc1)=N[C@@H](CC(=O)OC(C)(C)C)c1nnc(C)n1-2 (stereo partly drawn) [Compound 9123]	< 50 nM		< 50 nM	
Cc1sc2c(c1C)C(c1ccc(/C=C/C=N/O)cc1)=N[C@@H](CC(=O)OC(C)(C)C)c1nnc(C)n1-2 [Compound 9132-A]	< 50 nM	D (80%<D<100%)	50 to 200 nM	
Cc1sc2c(c1C)C(c1ccc(C3CC3CN)cc1)=N[C@@H](CC(=O)OC(C)(C)C)c1nnc(C)n1-2 (stereo partly drawn) [Compound 9138]	> 500 nM		> 500 nM	
Cc1noc2c1-c1ccccc1C(c1ccc(C#CCN)cc1)=N[C@H]2Cc1nccs1 [Compound 9141]	> 500 nM		> 500 nM	
CC(=O)ONC/C=C/c1ccc(C2=N[C@@H](CC(=O)OC(C)(C)C)c3nnc(C)n3-c3sc(C)c(C)c32)cc1 [Compound 9144]	< 50 nM		< 50 nM	
COC(=O)C[C@@H]1N=C(c2ccc(Cl)cc2)c2c(sc(C(=O)NCCOCCNC(=O)C[C@@H]3N=C(c4ccc(C#CCN)cc4)c4c(sc(C)c4C)-n4c(C)nnc43)c2C)-n2c(C)nnc21 [Compound 9157]	200 to 500 nM		200 to 500 nM	
COc1ccc2c(c1)C(c1ccc(C#CCNC(=N)N)cc1)=N[C@@H](CC(=O)OC(C)(C)C)c1nnc(C)n1-2 [Compound 9159]	> 500 nM			> 500 nM
Cc1sc2c(c1C)C(c1ccc(/C=C/CN)cc1)=N[C@@H](Cc1nnc(C(C)C)o1)c1nnc(C)n1-2 [Compound 9168]	< 50 nM		< 50 nM	
Cc1sc2c(c1C)C(c1ccc(/C=C/CNS(C)(=O)=O)cc1)=N[C@@H](CC(=O)OC(C)(C)C)c1nnc(C)n1-2 [Compound 9200]	50 to 200 nM		50 to 200 nM	
COc1ccc2c(c1)C(c1ccc3c(c1)NC(=O)CC3)=N[C@@H](CC(=O)OC(C)(C)C)c1nnc(C)n1-2 [Compound 9211]	> 500 nM			> 500 nM
COC(=O)C[C@@H]1N=C(c2ccc(/C=C/CNO)c(F)c2)c2cc(OC)ccc2-n2c(C)nnc21 [Compound 9213]	< 50 nM			< 50 nM
COc1ccc2c(c1)C(c1ccc(/C=C/CNO)c(F)c1)=N[C@@H](CC(=O)O)c1nnc(C)n1-2 [Compound 9214]	> 500 nM			> 500 nM
COc1ccc2c(c1)C(c1ccc(/C=C/C=N\O)cc1)=N[C@@H](CC(=O)OC(C)(C)C)c1nnc(C)n1-2 [Compound 9221]	200 to 500 nM			> 500 nM
COc1ccc2c(c1)C(c1ccc(/C=C/C=N/O)cc1)=N[C@@H](CC(=O)OC(C)(C)C)c1nnc(C)n1-2 [Compound 9222]	50 to 200 nM			200 to 500 nM
CCNC(=O)C[C@@H]1N=C(c2ccc(Cl)cc2)c2cc(OC)ccc2-n2c(C)nnc21 [I-BET-762, reference compound]	> 500 nM		> 500 nM	

— US20250109141A1, “BRD4 PROTEIN DEGRADER COMPOUND, AND PREPARATION METHOD AND USE THEREOF” (Miracure Biotechnology Limited, priority 2023, published 2025)
